Measurements: patent US8044198B2, “Sirtuin modulating compounds” (Sirtris Pharmaceuticals, Inc., priority 2005, dated 2011)

Tests used:
SIRT1 [1] = target: T1, SIRT1 (Homo sapiens, UniProt Q96EB6); assay: SIRT1 mass spectrometry (MS) based deacetylation assay; type: biochemical; conditions: for EC50: SIRT1 activation, mass spectrometry assay, read-out: ED50 MS ASSAY; for FOLD ACT. MS: fold activation of SIRT1 as determined by MS
T1 sequence (Q96EB6 1-747): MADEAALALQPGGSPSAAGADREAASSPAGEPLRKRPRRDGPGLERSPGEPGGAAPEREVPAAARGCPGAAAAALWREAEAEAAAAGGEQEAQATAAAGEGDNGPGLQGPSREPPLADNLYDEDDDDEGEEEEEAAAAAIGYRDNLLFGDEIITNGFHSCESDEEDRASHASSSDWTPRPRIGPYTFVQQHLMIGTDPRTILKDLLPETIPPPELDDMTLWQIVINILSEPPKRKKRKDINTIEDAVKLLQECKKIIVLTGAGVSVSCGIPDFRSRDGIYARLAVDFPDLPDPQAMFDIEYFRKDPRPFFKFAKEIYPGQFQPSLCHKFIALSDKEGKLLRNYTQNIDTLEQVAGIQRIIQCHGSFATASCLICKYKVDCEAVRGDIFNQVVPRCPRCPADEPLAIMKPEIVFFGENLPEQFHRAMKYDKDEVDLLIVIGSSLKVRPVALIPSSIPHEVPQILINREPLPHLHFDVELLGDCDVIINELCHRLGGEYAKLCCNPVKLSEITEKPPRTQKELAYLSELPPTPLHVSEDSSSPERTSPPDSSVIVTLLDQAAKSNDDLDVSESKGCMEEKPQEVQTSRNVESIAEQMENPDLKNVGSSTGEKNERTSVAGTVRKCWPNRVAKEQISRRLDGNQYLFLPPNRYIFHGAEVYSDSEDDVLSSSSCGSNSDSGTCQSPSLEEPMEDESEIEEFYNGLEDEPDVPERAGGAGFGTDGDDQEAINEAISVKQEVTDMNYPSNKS

SIRT1 [2] = target: T1, SIRT1; assay: SIRT1 fluorescence polarization (FP) deacetylation assay with p53-based peptide substrates; type: biochemical; conditions: for EC50: SIRT1 activation, read-out: ED50 FP ASSAY; for IC50: Sirt1 Inhibitors
Experimental: A fluorescence polarization or mass spectrometry based assay was used to identify modulators of SIRT1 activity. The same assay may be used to identify modulators of any sirtuin protein. The fluorescence polarization assays utilizes one of two different peptides based on a fragment of p53, a known sirtuin deacetylation target. Compounds 1-18 were tested using a substrate containing peptide 1 having 14 amino acid residues as follows: […](Ac)NleSTEG (SEQ ID NO: 1) wherein K(Ac) is an acetylated lysine residue and Nle is a norleucine. The peptide is labeled with the fluorophore MR121 (excitation 635 nm/emission 680 nm) at the C-terminus and biotin at the N-terminus. The sequence of the peptide substrate is based on p53 with several modifications. In particular, all arginine and leucine residues other than the acetylated lysine have replaced with serine so that the peptide is not susceptible to trypsin cleavage in the absence of deacetylation. In addition, the methionine residue naturally present in the sequence has been replaced with the norleucine because the methionine may be susceptible to oxidation during synthesis and purification. […] This peptide is labeled with the fluorophore MR121 (excitation 635 nm/emission 680 nm) at the C-termini and biotin at the N-termini. The sequence of the peptide substrates are based on p53 with several modifications. In particular, all arginine and leucine residues other than the acetylated lysine residues have replaced with serine so that the peptides are not susceptible to trypsin cleavage in the absence of deacetylation. In addition, the methionine residues naturally present in the sequences have been replaced with the norleucine because the methionine may be susceptible to oxidation during synthesis and purification. […] The peptide is labeled with the fluorophore 5TMR (excitation 540 nm/emission 580 nm) at the C-terminus. The sequence of the peptide substrate is also based on p53 with several modifications. In addition, the methionine residue naturally present in the sequence was replaced with the norleucine because the methionine may be susceptible to oxidation during synthesis and purification.
The peptide substrates were exposed to a sirtuin protein in the presence of NAD^+ to allow deacetylation of the substrate and render it sensitive to cleavage by trypsin. Trypsin was then added and the reaction was carried to completion (i.e., the deacetylated substrate is cleaved) releasing the MR121 or 5TMR fragment. Streptavidin is then added to the reaction where it can bind both the uncleaved substrate (i.e., any remaining acetylated substrate) and the non-fluorescent portion of the cleaved peptide substrate (i.e., the biotin containing fragment). The fluorescence polarization signal observed for the full length peptide substrates bound to streptavidin was higher than the fluorescence polarization signal observed for the released MR121 or 5TMR C-terminal fragment. In this way, the fluorescence polarization obtained is inversely proportional to the level of deacetylation (e.g., the signal is inversely proportional to the activity of the sirtuin protein). Results were read on a microplate fluorescence polarization reader (Molecular Devices Spectramax MD) with appropriate excitation and emission filters.
The fluorescence polarization assays using peptide 1 was conducted as follows: 0.5 μM peptide substrate and 150 μM βNAD^+ is incubated with 0.1 μg/mL of SIRT1 for 60 minutes at 37° C. in a reaction buffer (25 mM Tris-acetate pH8, 137 mM Na—Ac, 2.7 mM K—Ac, 1 mM Mg—Ac, 0.05% Tween-20, 0.1% Pluronic F127, 10 mM CaCl2, 5 mM DTT, 0.025% BSA, 0.15 mM Nicotinamide). Test compounds 1-18 were solubilized in DMSO and added to the reaction at 11 concentrations ranging from 0.7 μM to 100 μM. […]

NCI-H358 cells = assay: Cellular ATP Assay (ATPLite 1Step normalized to AlamarBlue viability); type: cell-based; conditions: Homo sapiens, compounds that raised intracellular ATP levels, read-out: ED50 ATP ASSAY
Experimental: Cellular ATP levels are an indirect measurement of cellular metabolic rates and, by extension, mitochondrial function. […] The ATP assay is combined with a cellular viability assay so that cellular ATP levels can be normalized to viable cells. Cellular ATP levels were measured using the ATPLite 1Step Kit (PerkinElmer) and cellular viability was measured using the cell permeable dye, AlamarBlue™.
The Cellular ATP Assay is a multiplexed assay that measures both ATP levels and viability of a given cell sample. This assay is run in a 96-well Assay Plate and data are reported as the [ATP]/viability for each well in the Assay Plate.
The ATPLite 1 Step™ Kit is a single-step luminescent cell-based assay for detection of ATP. The kit contains lyophilized substrate mixture, comprised of D-luciferin and the firefly (Photinus pyralis) enzyme luciferase. Additionally, the kit contains a detergent-based reconstitution buffer that induces the lysis of cellular membranes. The luciferase in the assay mixture catalyzes a reaction between the free cellular ATP and D-luciferin to produce bioluminescence according to the schematic reaction outlined below. The amount of light produced is proportional to the cellular ATP concentration.
The AlamarBlue™ Assay is a single-step assay that utilizes a soluble, non-toxic, cell permeable dye that is added to cell growth media. This dye undergoes electron reduction in viable cells but not dead cells. The reduced dye product gives a fluorescent signal which can be monitored with a fluorescence plate reader (excitation 545 nm and emission 575 nm). The amount of fluorescence generated in a given well is proportional to the number of viable cells. The viability signal generated by this assay is used to normalize the ATP signal from the ATPLite 1Step™ assay results.
The material was dissolved in 100% vehicle (DMSO) to yield a final concentration of 10 mM (stock solution). The stock solution was serially diluted with 100% DMSO as described in SOP 7.10.
In this assay NCI-H358 cells (obtained from the American Tissue Culture Collection, ATCC) were seeded in 96 well microplates (10^4 cells/well). The NCI-H358 Growth Culture Media consists of RPMI 1640 Media supplemented with 10% FBS, […] streptomycin, and 100 units/mL penicillin. […] After 48 hours of compound treatment under cell growth conditions, plates were removed from incubator, and 15 μl of AlamarBlue™ dye was added to each well. Cell microplates were incubated with dye for 2 hours under growth conditions, and fluorescence was subsequently measured using a plate reader. Media containing AlamarBlue™ was removed, and plates were washed in 100 μl of PBS per well. This wash was removed, and 200 μl of 1×ATPLite 1Step reagent was added to each well. Luminescence was then measured using a plate reader. The ATP signal for each well, measured by the luminescence scan, was normalized to its corresponding cell viability value, measured by the fluorescence scan, to generate the average ATP level per viable cell unit (ATP/vCell). The ATP/vCell for each treatment was then normalized to the average vehicle ATP/vCell for its respective cell microplate, yielding the normalized ATP/vCell (norm. ATP/vCell). Finally, the norm. ATP/vCell for each unique treatment was averaged across plate replicates, generating the average norm. ATP/vCell.
Each of these ATP levels was normalized to the cell viability in the corresponding treatment well, generating the ATP/vCell value. Each ATP/vCell value was subsequently normalized to its average Vehicle ATP/vCell values for its respective cell microplate.
Data are represented as the normalized ATP/vCell (arbitrary units). […] These values represent an average of three plate replicates.
A number of compounds were screened for their affect on ATP levels in the assay as described in Example 5. […] NA means that the compound was not tested using the indicated assay.

SMILES | EC50 (SIRT1 [1]) [µM] | EC50 (SIRT1 [2]) [µM] | IC50 (SIRT1 [2]) [µM] | FOLD ACT. MS (SIRT1 [1]) | EC50 (NCI-H358 cells) [µM]
Cc1ccc(C)n1-c1cccc(C(=O)Nc2ccc(-c3nc4ncccc4o3)cc2)c1 [Compound 19] | > 150 | > 150 | – | – | –
O=C(Nc1ccc(-c2nc3ncccc3o2)cc1)c1ccc(N2CCOCC2)cc1 [Compound 20] | > 150 | > 150 | – | – | –
O=C(Nc1ccc(-c2nc3ncccc3o2)cc1)c1ccc(N2CCCCC2)cc1 [Compound 21] | > 150 | > 150 | – | – | –
COc1ccc(C(=O)Nc2ccc(-c3nc4ncccc4o3)cc2)cc1C(F)(F)F [Compound 22] | > 150 | > 150 | – | – | –
CN(C)c1ccc(C(=O)Nc2ccc(-c3nc4ncccc4o3)cc2)cc1 [Compound 24] | > 150 | > 150 | – | – | –
N#Cc1cccc(C(=O)Nc2ccc(-c3nc4ncccc4o3)cc2)c1 [Compound 25] | – | – | 51 to 100 | – | –
N#Cc1ccc(C(=O)Nc2ccc(-c3nc4ncccc4o3)cc2)cc1 [Compound 26] | – | – | 51 to 100 | – | –
COc1cccc(OC)c1C(=O)Nc1ccc(-c2nc3ncccc3o2)cc1 [Compound 27] | > 150 | > 150 | – | – | –
O=C(Nc1ccc(-c2nc3ncccc3o2)cc1)c1ccccc1N1CCOCC1 [Compound 28] | – | – | > 150 | – | –
O=C(Nc1ccc(-c2nc3ncccc3o2)cc1)c1ccc(N2CCCC2)cc1 [Compound 29] | > 150 | > 150 | – | – | –
COc1ccc(C(=O)Nc2ccc(-c3nc4ncccc4o3)cc2)cc1Cl [Compound 30] | – | – | > 150 | – | –
COc1cccc(C(=O)Nc2ccc(-c3nc4ncccc4o3)cc2)c1C [Compound 31] | > 150 | > 150 | – | – | –

Continued, in another order:

EC50 (SIRT1 [1]) [µM] | EC50 (SIRT1 [2]) [µM] | IC50 (SIRT1 [2]) [µM] | FOLD ACT. MS (SIRT1 [1]) | SMILES | EC50 (NCI-H358 cells) [µM]
> 150 | > 150 | – | – | O=C(Nc1ccc(-c2nc3ncccc3o2)cc1)c1cccc(OC(F)(F)F)c1 [Compound 32] | –
> 150 | > 150 | – | – | COc1ccc(C(=O)Nc2ccc(-c3nc4ncccc4o3)cc2)cc1OC [Compound 33] | –
> 150 | > 150 | – | – | COc1ccc(C(=O)Nc2ccc(-c3nc4ncccc4o3)cc2)c(OC)c1OC [Compound 34] | –
> 150 | > 150 | – | – | COc1ccc(C(=O)Nc2ccc(-c3nc4ncccc4o3)cc2)cc1 [Compound 35] | –
> 150 | > 150 | – | – | COc1ccc(C(=O)Nc2ccc(-c3nc4ncccc4o3)cc2)c(OC)c1 [Compound 36] | –
> 150 | > 150 | – | – | O=C(Nc1ccc(-c2nc3ncccc3o2)cc1)c1ccccc1 [Compound 37] | –
5 to 50 | 5 to 50 | – | B (B (Fold Activation <250%)) | CN(C)c1cccc(C(=O)Nc2cccc(-c3nc4ncccc4o3)c2)c1 [Compound 42] | < 50
5 to 50 | 5 to 50 | – | B (B (Fold Activation <250%)) | CN(C)c1ccc(C(=O)Nc2cccc(-c3nc4ncccc4o3)c2)cc1 [Compound 43] | –
5 to 50 | 5 to 50 | – | B (B (Fold Activation <250%)) | COc1cc(C)ccc1C(=O)Nc1cccc(-c2nc3ncccc3o2)c1 [Compound 51] | –
5 to 50 | 5 to 50 | – | B (B (Fold Activation <250%)) | COc1ccc(C(=O)Nc2cccc(-c3nc4ncccc4o3)c2)cc1OC [Compound 52] | < 50
5 to 50 | 5 to 50 | – | B (B (Fold Activation <250%)) | COc1ccc(C(=O)Nc2cccc(-c3nc4ncccc4o3)c2)c(OC)c1 [Compound 55] | –
– | – | 51 to 100 | – | Cc1cc(SCc2sc(-c3ccc(C(F)(F)F)cc3)nc2C)ccc1OCC(=O)O [Compound 291] | –
